The source made the active and inactive calls. The rule behind the calls is not given here.

In the first assay the test system is Mus musculus. In words: Antiamnesic activity in scopolamine-induced amnesia mouse model assessed as increase in time spent in target quadrant at 25 mg/kg, ip measured on day 5 by Morris water maze test. The format is functional, organism-based. On the set-up: dose 25 mg/kg.
For `COc1cc2c(cc1OC)C(=O)C(CC1CCN(Cc3ccccc3)CC1)C2` (centres undefined), the result was Active.

The target of the next assay is T1, Acetylcholinesterase (Rattus norvegicus, UniProt P37136).
T1 sequence (P37136 whole entry): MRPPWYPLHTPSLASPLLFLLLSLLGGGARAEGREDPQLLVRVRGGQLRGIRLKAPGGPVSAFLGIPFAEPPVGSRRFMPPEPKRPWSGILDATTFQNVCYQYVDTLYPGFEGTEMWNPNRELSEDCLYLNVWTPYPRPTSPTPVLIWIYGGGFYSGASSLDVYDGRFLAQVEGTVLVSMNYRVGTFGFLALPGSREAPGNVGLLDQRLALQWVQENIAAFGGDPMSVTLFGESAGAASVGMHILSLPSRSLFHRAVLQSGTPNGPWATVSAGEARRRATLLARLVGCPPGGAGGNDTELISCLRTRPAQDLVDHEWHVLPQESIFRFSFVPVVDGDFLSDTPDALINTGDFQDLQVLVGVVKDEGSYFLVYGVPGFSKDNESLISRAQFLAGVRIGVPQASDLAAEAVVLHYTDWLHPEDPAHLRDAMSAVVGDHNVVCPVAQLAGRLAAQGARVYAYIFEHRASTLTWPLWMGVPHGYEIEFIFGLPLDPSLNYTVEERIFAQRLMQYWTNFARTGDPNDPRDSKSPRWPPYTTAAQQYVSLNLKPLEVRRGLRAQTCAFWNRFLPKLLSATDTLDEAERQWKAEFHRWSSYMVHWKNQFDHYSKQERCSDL
In words: Inhibition of AChE activity in rat brain homogenate using acetylthiocholine as substrate by Ellman's method. The format is tissue-based. In general terms: Ellman's reagent forms a yellow product with free thiols.
As usually defined, the IC50 is the point on the concentration scale where inhibition reaches its midpoint. High values mean a need for much substance, low ones inhibition by little substance. The compound `Cc1ccc(N2O[C@@H]3C(=O)N(c4ccc(C(=O)O)cc4)C(=O)[C@@H]3[C@@H]2c2ccccc2O)cc1` yielded a 50% inhibitory concentration (IC50) of 23.2 nM. This counts as double-digit nanomolar. On the same count and under the same terms, next, `COc1ccc([C@H]2[C@@H]3C(=O)N(c4ccc(C(=O)O)cc4)C(=O)[C@@H]3ON2c2ccccc2)cc1`: 19.1 nM. Same read-out and setting: next, `Cc1ccc(N2O[C@H]3C(=O)N(c4ccc(C(=O)O)cc4)C(=O)[C@H]3[C@@H]2c2ccc(Cl)cc2)cc1`: 20.4 nM; `Cc1ccc(N2O[C@H]3C(=O)N(c4ccc(C(=O)O)cc4)C(=O)[C@H]3[C@@H]2c2ccc([N+](=O)[O-])cc2)cc1`: 24.1 nM.

On to `O=C(O)c1ccc(N2C(=O)[C@H]3[C@H](ON(c4ccccc4)[C@H]3c3ccccc3Cl)C2=O)cc1` (relative stereo), for which the IC50 was 21.8 nM. The same measure, in the same setting: next, `O=C(O)c1ccc(N2C(=O)[C@H]3[C@H](ON(c4ccccc4)[C@H]3c3ccccc3)C2=O)cc1` (relative stereo): 23.9 nM; `O=C(O)c1ccc(N2C(=O)[C@H]3[C@H](ON(c4ccccc4)[C@H]3c3ccccc3O)C2=O)cc1` (relative stereo): 23.9 nM; `O=C(O)c1ccc(N2C(=O)[C@H]3[C@H](ON(c4ccccc4)[C@H]3c3ccc(O)cc3)C2=O)cc1` (relative stereo): 22.5 nM. On the same count and under the same terms, next, `O=C(O)c1ccc(N2C(=O)[C@H]3[C@H](ON(c4ccccc4)[C@H]3c3cccc(Cl)c3)C2=O)cc1` (relative stereo): 20.1 nM; `O=C(O)c1ccc(N2C(=O)[C@H]3[C@H](ON(c4ccccc4)[C@H]3c3ccc(Cl)cc3)C2=O)cc1` (relative stereo): 19.7 nM; `COc1ccccc1[C@H]1[C@H]2C(=O)N(c3ccc(C(=O)O)cc3)C(=O)[C@H]2ON1c1ccccc1` (relative stereo): 19.2 nM. As to `COc1cccc([C@H]2[C@H]3C(=O)N(c4ccc(C(=O)O)cc4)C(=O)[C@H]3ON2c2ccccc2)c1` (relative stereo), the IC50 is 19.1 nM.

Consider `COc1ccc([C@H]2[C@H]3C(=O)N(c4ccc(C(=O)O)cc4)C(=O)[C@H]3ON2c2ccccc2)cc1` (relative stereo), for which the midpoint of inhibition, the IC50, lay at 18.8 nM.

For the compound `O=C(O)c1ccc(N2C(=O)[C@H]3[C@H](ON(c4ccccc4)[C@H]3c3ccccc3[N+](=O)[O-])C2=O)cc1` (relative stereo), the IC50 came to 26.1 nM. On the same count and under the same terms, next, `O=C(O)c1ccc(N2C(=O)[C@H]3[C@H](ON(c4ccccc4)[C@H]3c3ccc([N+](=O)[O-])cc3)C2=O)cc1` (relative stereo): 25.8 nM. `Cc1ccc(N2O[C@@H]3C(=O)N(c4ccc(C(=O)O)cc4)C(=O)[C@@H]3[C@@H]2c2ccccc2)cc1` (relative stereo) yielded an IC50 of 22.8 nM. `Cc1ccc(N2O[C@@H]3C(=O)N(c4ccc(C(=O)O)cc4)C(=O)[C@@H]3[C@@H]2c2ccc(O)cc2)cc1` (relative stereo) displayed a half-maximal inhibitory concentration (IC50) of 21.9 nM. This IC50 and that of the compound before are within 1.5-fold of each other. The same measure, in the same setting: next, `Cc1ccc(N2O[C@@H]3C(=O)N(c4ccc(C(=O)O)cc4)C(=O)[C@@H]3[C@@H]2c2ccccc2Cl)cc1` (relative stereo): 21.3 nM. The same measure, in the same setting: next, `Cc1ccc(N2O[C@@H]3C(=O)N(c4ccc(C(=O)O)cc4)C(=O)[C@@H]3[C@@H]2c2cccc(Cl)c2)cc1` (relative stereo): 22.2 nM. On the same count and under the same terms, next, `Cc1ccc(N2O[C@@H]3C(=O)N(c4ccc(C(=O)O)cc4)C(=O)[C@@H]3[C@@H]2c2ccc(Cl)cc2)cc1` (relative stereo): 19.2 nM. `COc1ccccc1[C@H]1[C@H]2C(=O)N(c3ccc(C(=O)O)cc3)C(=O)[C@H]2ON1c1ccc(C)cc1` (relative stereo): the IC50 was found to be 19.1 nM.

Take `COc1cccc([C@H]2[C@H]3C(=O)N(c4ccc(C(=O)O)cc4)C(=O)[C@H]3ON2c2ccc(C)cc2)c1` (relative stereo): the half-inhibitory concentration (IC50) was determined as 18.8 nM. Same read-out and setting: next, `Cc1ccc(N2O[C@@H]3C(=O)N(c4ccc(C(=O)O)cc4)C(=O)[C@@H]3[C@@H]2c2ccccc2[N+](=O)[O-])cc1` (relative stereo): 24.3 nM; `Cc1ccc(N2O[C@@H]3C(=O)N(c4ccc(C(=O)O)cc4)C(=O)[C@@H]3[C@@H]2c2ccc([N+](=O)[O-])cc2)cc1` (relative stereo): 23.4 nM; `O=C(O)c1ccc(N2C(=O)[C@@H]3[C@@H](ON(c4ccccc4)[C@H]3c3ccccc3)C2=O)cc1` (relative stereo): 24.4 nM. Still for that read-out and setting: next, `O=C(O)c1ccc(N2C(=O)[C@@H]3[C@@H](ON(c4ccccc4)[C@H]3c3ccccc3O)C2=O)cc1` (relative stereo): 24.8 nM. With `O=C(O)c1ccc(N2C(=O)[C@@H]3[C@@H](ON(c4ccccc4)[C@H]3c3ccc(O)cc3)C2=O)cc1` (relative stereo), the IC50 is 22.7 nM. Still for that read-out and setting: next, `O=C(O)c1ccc(N2C(=O)[C@@H]3[C@@H](ON(c4ccccc4)[C@H]3c3ccccc3Cl)C2=O)cc1` (relative stereo): 22.4 nM; `O=C(O)c1ccc(N2C(=O)[C@@H]3[C@@H](ON(c4ccccc4)[C@H]3c3cccc(Cl)c3)C2=O)cc1` (relative stereo): 21.8 nM; `O=C(O)c1ccc(N2C(=O)[C@@H]3[C@@H](ON(c4ccccc4)[C@H]3c3ccc(Cl)cc3)C2=O)cc1` (relative stereo): 20.9 nM.

Regarding `COc1ccccc1[C@H]1[C@@H]2C(=O)N(c3ccc(C(=O)O)cc3)C(=O)[C@@H]2ON1c1ccccc1` (relative stereo), the midpoint of inhibition, the IC50, lay at 20.6 nM. The same measure, in the same setting: next, `COc1cccc([C@H]2[C@@H]3C(=O)N(c4ccc(C(=O)O)cc4)C(=O)[C@@H]3ON2c2ccccc2)c1` (relative stereo): 20.5 nM; `O=C(O)c1ccc(N2C(=O)[C@@H]3[C@@H](ON(c4ccccc4)[C@H]3c3ccccc3[N+](=O)[O-])C2=O)cc1` (relative stereo): 26.9 nM; `O=C(O)c1ccc(N2C(=O)[C@@H]3[C@@H](ON(c4ccccc4)[C@H]3c3ccc([N+](=O)[O-])cc3)C2=O)cc1` (relative stereo): 26.4 nM. In turn, `Cc1ccc(N2O[C@H]3C(=O)N(c4ccc(C(=O)O)cc4)C(=O)[C@H]3[C@@H]2c2ccccc2)cc1` (relative stereo) registered an IC50 of 22.4 nM. The compound `Cc1ccc(N2O[C@H]3C(=O)N(c4ccc(C(=O)O)cc4)C(=O)[C@H]3[C@@H]2c2ccccc2O)cc1` (relative stereo) came in with an IC50 of 24.1 nM.

`Cc1ccc(N2O[C@H]3C(=O)N(c4ccc(C(=O)O)cc4)C(=O)[C@H]3[C@@H]2c2ccc(O)cc2)cc1` (relative stereo) gave an IC50 of 22.5 nM. Same read-out and setting: next, `Cc1ccc(N2O[C@H]3C(=O)N(c4ccc(C(=O)O)cc4)C(=O)[C@H]3[C@@H]2c2ccccc2Cl)cc1` (relative stereo): 22.1 nM; `Cc1ccc(N2O[C@H]3C(=O)N(c4ccc(C(=O)O)cc4)C(=O)[C@H]3[C@@H]2c2cccc(Cl)c2)cc1` (relative stereo): 23.8 nM; `COc1ccccc1[C@H]1[C@@H]2C(=O)N(c3ccc(C(=O)O)cc3)C(=O)[C@@H]2ON1c1ccc(C)cc1` (relative stereo): 20.2 nM.

For `COc1cccc([C@H]2[C@@H]3C(=O)N(c4ccc(C(=O)O)cc4)C(=O)[C@@H]3ON2c2ccc(C)cc2)c1` (relative stereo), the IC50 came to 19.9 nM.

`COc1ccc([C@H]2[C@@H]3C(=O)N(c4ccc(C(=O)O)cc4)C(=O)[C@@H]3ON2c2ccc(C)cc2)cc1` (relative stereo) gave an IC50 of 18 nM. Same read-out and setting: next, `Cc1ccc(N2O[C@H]3C(=O)N(c4ccc(C(=O)O)cc4)C(=O)[C@H]3[C@@H]2c2ccccc2[N+](=O)[O-])cc1` (relative stereo): 25.2 nM.

Source of the values: ChEMBL document CHEMBL2069196, “Synthesis and evaluation of novel 4-[(3H,3aH,6aH)-3-phenyl)-4,6-dioxo-2-phenyldihydro-2H-pyrrolo[3,4-d]isoxazol-5(3H,6H,6aH)-yl]benzoic acid derivatives as potent acetylcholinesterase inhibitors and anti-amnestic agents” (Bioorg Med Chem, 2012).
